The source of these data is US9845284B1, “Method of obtaining complex acidic salts of divalent metals and dicarboxylic acids” (priority 2016, dated 2017).

This series can be described thus: Incorporation of 13C-labeled dicarboxylic acid anions in metabolic processes, determined by exhalation of 13CO2 in rats. The note with it: aqueous solution by pipette, amount equivalent to 1 mg of acid anion, air collected 12 hours after administration, 13C-labeled compounds. The protocol: The signal incorporation in metabolism was determined by exhalation of the labeled ^13C atom in the form of ^13CO2. The experiment was conducted as follows: aqueous solutions, in the amounts equivalent to 1 mg of the acids anions they contained, were administered to rats (groups of 8 individuals, each rat weighing 225-250 g) with a pipette: amber acid, sodium fumarate (fumaric acid is almost insoluble in water), aspartic acids, Ca(SucH)2, Mg(SucH)2.4H2O, Mg(AspH)2.4H2O, Zn(FumH)2.0.5H2O, Zn(FumH)2.H2O. The animals were then quickly placed in a hermetically sealed chamber. The air from the chamber was sampled in the same amount as it was pumped in the chamber. […] After that, the mass % of 13C administer was calculated in the exhaled air.
As to `O.O.O.O.O=C([O-])CCC(=O)O.O=C([O-])CCC(=O)O.[Mg+2]` [Mg(SucH)2.4H2O, Acidic Magnesium Succinate], the “mass % of 13C administered found in the exhaled air (as 13CO2)” value (shortened to “mass % of 13C administered found”) turned out to be 47.7%.

As for `N[C@@H](CC(=O)[O-])C(=O)O.N[C@@H](CC(=O)[O-])C(=O)O.O.O.O.O.[Mg+2]` [Mg(AspH)2.4H2O, Acidic Magnesium Aspartate], the “mass % of 13C administered found” value came to 47.4%.

Regarding `O=C([O-])/C=C/C(=O)[O-].[Na+].[Na+]` [sodium fumarate, reference compound], the “mass % of 13C administered found” value was 97.8%.
